Entries after “also recorded” stand apart in the source; their conditions may differ. Where a SMILES comes first, the peptide text is derived from it.
How the values were obtained:
[1] = system: L-carnitine amidase; assay: Substrate spectrum of L-carnitine amidase; format: biochemical, strain DSM 6230; details: for Rel. activity (%): substrate 50 mM, 30° C., 100 mM potassium phosphate buffer pH 8
Protocol: The enzyme test was carried out at 30° C. in 100 mM potassium phosphate buffer pH 8. The substrate concentration was 50 mM.

[2] = system: L-carnitine amidase; assay: Test for the induction of L-carnitine amidase; format: cell-based, strain DSM 6230; details: for Activity (mU/mg) / Activity (mU/ml): 5 g/l of the substance as inductor, 36 h, L-carnitine amide as substrate; for Induction of L-carnitine amidase (in words): strain DSM 6230
Protocol: (§1) In this test, various substances were examined for their induction action. At the same time, the growth on these compounds was followed. The medium used was a minimum medium with 1.0 g/l instead of 0.5 g/l yeast extract, to which 5 g/l of the substance to be tested were added in each instance. The culture without inductor contained 5 g/l yeast extract. All tests were carried out with 20 ml shaking cultures which were incubated 36 h at 30° C. and 120 rpms in a rotating [round]shaking machine. These cultures were inoculated with 1% of an initial culture of strain DSM 6230. L-carnitine amide was used as substrate for the enzyme test.
(§2) At the same time, the growth of the bacteria was followed in these carnitine amide concentrations. The culture conditions corresponded to those in example 3.

[3] = system: strain DSM 6230; assay: Growth of strain DSM 6230 on the test substances (OD660); format: cell-based; details: for OD660: 5 g/l of the substance in minimum medium with 1.0 g/l yeast extract, 36 h, 30° C.; for Growth of the strain on the substance (in words): strain DSM 6230
Protocol: 1367 strains were isolated during the screening program. These strains were incubated in 100 ml Erlenmeyer flasks containing 20 ml of the particular enrichment medium in a rotary agitator at 30° C. and 120 rpms. The optical density at 660 nm was taken as an indication for the cell growth.
as §1, §2

[4] = system: carnitine amidase (raw extract of strain DSM 6230); assay: Activity test of the raw extract of strain DSM 6230 with enantiomerically pure D- and L-carnitine amide; format: biochemical; details: for Activity (mU/mg) / Activity (mU/ml): raw extract of strain DSM 6230, labelled amide as substrate, 50 mM, 30° C.
Protocol: After 3 days, the contents of the shaking flasks were centrifuged (10 min., 10000 rpms in a refrigerated centrifuge), and the sedimentated cells were taken up in 100 mM potassium phosphate buffer pH 7.5 (an approximately 20% microorganism suspension was produced).
The microorganisms in this suspension must be macerated in the customary manner (e.g. agitation with fine glass beads or ultrasound treatment). The cell maceration was carried out by means of wet grinding with glass beads (diameter 0.3 mm; 2 g beads per 1 ml cell suspension). The glass beads and the coarse cell fragments were centrifuged off by means of centrifugation in a refrigerated centrifuge (5 min. 12000 rpms). The clear supernatant was designated as raw extract and used for further experiments.
The materials for the activity test contained:
400 μl potassium phosphate buffer 0.1 M, pH 7.5
50 μl substrate in 0.1 M potassium phosphate buffer, pH 7.5
50 μl enzyme solution (raw extract)
The following were used as substrates:
a) DL-carnitine amide final concentration in the test 100 mM
b) D-carnitine amide final concentration in the test 50 mM c) L-carnitine amide final concentration in the test 50 mM
The enzyme test was carried out in 1.5 ml Eppendorf vessels at a temperature of 30° C. The reaction was started by the addition of enzyme solution and stopped by acidification. The precipitated protein was centrifuged off (Eppendorf centrifuge 5 min. 12500 rpms) and the supernatant examined. In order to determine the blank reading, a control specimen for the substrate and the enzyme solution was always used.
The definition of the enzyme unit is 1 mU=1 nM converted substrate per minute.
L-carnitine can be determined enzymatically with the carnitine acetyl transferase. The ammonia was determined on the one hand photometrically as indophenol and on the other hand enzymatically with the aid of glutamate dehydrogenase.
The raw extract of this strain was tested with enantiomerically pure D- and L-carnitine amide:
The raw extract was retested for D- and L-carnitine amide and the enzyme test was stopped after 10 min. (there is still sufficient L-carnitine amide in the test batch) and after 5 hours (the L-carnitine amide has reacted to a great extent or completely). The L-amidase activity, relative to the total amidase activity, was 100% after 10 min. and still over 99% after 5 hours.

[5] = system: 20% cell suspension of the strain DSM 6230; assay: Conversion with whole cells; format: cell-based
From the text: The conversion with whole cells was examined by carrying out the customary enzyme test with a 20% cell suspension of the strain DSM 6230. Result: L-carnitine amide is converted by whole cells with 64% greater activity than by a macerated cell suspension of the same concentration. D-carnitine is not converted. It is therefore to be expected that the conversion of L-carnitine amide to L-carnitine can also be carried out very well by means of immobilized microorganisms. […] Suitable microorganism immobilizates are immobilizates based on alginate or chitosan.

Structure (SMILES) | Rel. activity (%) [1] [%] | Activity (mU/mg) [2] [mU/mg] | Activity (mU/ml) [2] [mU/ml] | OD660 [3] | further results
CC(N)=O [Acetamide] | 0 | 0 | 0 | 1.0 | –
C[N+](C)(C)C[C@@H](O)CC#N [D-carnitine nitrile] | 0 | 90 | 206 | 0.8 | –
NC(=O)[C@@H]1CCCN1 [L-proline amide] | 0 | 54 | 250 | 1.0 | –
C[N+](C)(C)C[C@@H](O)CC(N)=O [D-carnitine amide] | 0 | 166 | 497 | 0.8 | Hydrolysis / conversion by L-carnitine amidase (in words) [1]: does not hydrolyze; Activity (mU/mg) [4]: 0 mU/mg; Activity (mU/ml) [4]: 0 mU/ml
CCC(N)=O [Propionamide] | 0 | 29 | 129 | 1.1 | –
C[N+](C)(C)C[C@H](O)CC(N)=O [L-carnitine amide] | 100 | 1706 | 8530 | 3.5 | Hydrolysis / conversion by L-carnitine amidase (in words) [1]: hydrolyzes; Induction of L-carnitine amidase (in words) [2]: induced; also recorded: best of the inductors tested; Activity (mU/mg) [4]: 1960 mU/mg; Activity (mU/ml) [4]: 8624 mU/ml; L-amidase activity, relative to the total amidase activity ([4]; raw extract, enzyme test stopped after 10 min.): 100%; L-amidase activity, relative to the total amidase activity ([4]; raw extract, enzyme test stopped after 5 hours): over 99%; L-amidase activity (%) ([4]; raw extract, relative to total amidase activity): 100%; Activity of whole cells, greater than that of a macerated cell suspension of the same concentration [5]: 64%; Growth of the strain on the substance (in words) [3]: Good growth
C=CC(N)=O [Acrylamide] | 0 | 136 | 170 | 0.8 | –
NC(=O)c1ccccc1 [Benzamide] | 0 | 0 | 0 | 0.3 | –
CC(O)C(N)=O (stereo not shown) [Lactic acid amide] | 0 | 28 | 55 | 0.8 | –
CC(C)C(N)=O [Isobutyramide] | 0 | 41 | 193 | 1.1 | –
NCC(N)=O [Glycine amide] | 0 | 43 | 180 | 1.0 | Induction of L-carnitine amidase (in words) [2]: not induced; Growth of the strain on the substance (in words) [3]: good growth substrates
NC(=O)[C@H](Cc1ccccc1)NC(=O)[C@@H](N)CC(=O)O [L-Asp-L-Phe-NH2] (H-Asp-Phe-NH2) | 0 | – | – | – | –
CCCC(N)=O [Butyramide] | 0 | 18 | 54 | 0.9 | –
C[C@@H](O)[C@H](N)C(N)=O [1-Thr-NH2] | 0 | – | – | – | –
NC(=O)[C@@H](N)CO [L-Ser-NH2] | 0 | – | – | – | –
CC(C)[C@H](N)C(N)=O [L-valine amide] | 0 | 12 | 32 | 0.9 | –
NC(=O)[C@@H](N)Cc1ccc(O)cc1 [L-Tyr-NH2] | 0 | – | – | – | –
CC(C)C[C@H](N)C(N)=O [L-leucine amide] | 0 | 9 | 34 | 2.5 | Induction of L-carnitine amidase (in words) [2]: not induced; Growth of the strain on the substance (in words) [3]: Good growth
C[C@H](N)C(N)=O [L-Ala-NH2] | 0 | – | – | – | –
C[N+](C)(C)C[C@@H](O)CC(=O)[O-] [D-carnitine] | – | – | – | – | Conversion by whole cells (in words) [5]: not converted
NC(=O)[C@@H](N)Cc1c[nH]cn1 [L-His-NH2] | 0 | – | – | – | –
NC(=O)CNC(=O)[C@@H](N)Cc1ccc(O)cc1 [L-Tyr-Gly-NH2] | 0 | – | – | – | –
N=C(N)NCCC[C@H](N)C(N)=O [L-Arg-NH2] | 0 | – | – | – | –
NC(=O)[C@@H](N)Cc1ccccc1 [L-phenylalanine amide] | 0 | 72 | 172 | 0.6 | –
NC(=O)[C@@H](N)Cc1c[nH]c2ccccc12 [L-Trp-NH2] | 0 | – | – | – | –
C=C(C)C(N)=O [Methacrylamide] | 0 | 76 | 237 | 0.8 | –
C[N+](C)(C)C[C@H](O)CC#N [L-carnitine nitrile] | 0 | 65 | 183 | 0.8 | –
